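Cultured in 96-well plates, cells were exposed to test compound for 48 hours across five concentrations. GI50 is the concentration that inhibits growth by half.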 Active and inactive are the calls of the source. Cut-off read from the data, not from the text of the source: active = GI50 up to about 1.1 µM and inactive = higher.
How the values were obtained:
Test in all cases: NCI tumour cell line growth inhibition, 48 h
[1] = tested on: SK-MEL-2
[2] = tested on: ACHN
[3] = tested on: HCC 2998
[4] = tested on: CAKI-1
[5] = tested on: SNB-75
[6] = tested on: MOLT-4
[7] = tested on: LXFL 529
[8] = tested on: SK-OV-3
[9] = tested on: SNB-78
[10] = tested on: KM-20L2
[11] = tested on: U-251
[12] = tested on: DMS-114
[13] = tested on: HT-29
[14] = tested on: HCT-15
[15] = tested on: NCI-H522
[16] = tested on: IGROV-1

Structure (SMILES)	GI50 [1]	GI50 [2]	GI50 [3]	GI50 [4]	GI50 [5]	GI50 [6]	GI50 [7]	GI50 [8]	GI50 [9]	GI50 [10]	GI50 [11]	GI50 [12]	GI50 [13]	GI50 [14]	GI50 [15]	GI50 [16]
c1ccc(C2=NOC3COc4ccccc4OCC23)cc1 (stereo not drawn)	> 100 µM (inactive)	> 100 µM (inactive)	> 100 µM (inactive)	97.5 µM (inactive)	54.6 µM (inactive)	> 100 µM (inactive)	> 100 µM (inactive)	> 100 µM (inactive)	> 100 µM (inactive)	> 100 µM (inactive)	> 100 µM (inactive)	> 100 µM (inactive)	> 100 µM (inactive)	> 100 µM	> 100 µM (inactive)	
O=C(/C=C/c1ccccc1Cl)NC1C=Nc2ccc([N+](=O)[O-])cc2NC1 (stereo not drawn)	> 100 µM (inactive)	39.7 µM (inactive)	> 100 µM (inactive)	66.8 µM (inactive)	90.8 µM (inactive)	13.4 µM (inactive)	43.2 µM (inactive)	> 100 µM (inactive)	> 100 µM (inactive)	> 100 µM (inactive)	35.3 µM (inactive)	48.4 µM (inactive)		35.9 µM	22.6 µM (inactive)	88.7 µM (inactive)
COC(=O)C(Cc1nc2ccccc2nc1O)C(=O)C(=O)Nc1ccc([N+](=O)[O-])cc1[N+](=O)[O-] (stereo not drawn)	20.7 µM (inactive)	18.2 µM (inactive)	18.1 µM (inactive)	32.4 µM (inactive)	16.3 µM (inactive)	18.5 µM (inactive)	12.8 µM (inactive)	24.9 µM (inactive)	38.4 µM (inactive)	20.4 µM (inactive)	17.1 µM (inactive)	16.1 µM (inactive)	19.4 µM (inactive)	17.3 µM	6.22 µM (inactive)	25.6 µM (inactive)
Cc1ccc(S(=O)(=O)N/N=C\c2c3ccccc3[n+]([O-])c3ccccc23)cc1	4.41 µM (inactive)	2.7 µM (inactive)	8.57 µM (inactive)	6.28 µM (inactive)	3.44 µM (inactive)	0.612 µM (active)	0.935 µM (active)	14.7 µM (inactive)	6.71 µM (inactive)	2.96 µM (inactive)	3.93 µM (inactive)	3.37 µM (inactive)	1.63 µM (inactive)	0.989 µM	2.02 µM (inactive)	9.25 µM (inactive)
CN(C)c1ccc(/C=C(\NC(=O)c2ccccc2)c2nc3ccc4c(c3[nH]2)C(=O)c2ccccc2C4=O)cc1	61.8 µM (inactive)		> 100 µM (inactive)	9.1 µM (inactive)	11 µM (inactive)	2.65 µM (inactive)	39.6 µM (inactive)	39 µM (inactive)	75.7 µM (inactive)	> 100 µM (inactive)	31.5 µM (inactive)	21.7 µM (inactive)	69.3 µM (inactive)	34.1 µM	8.79 µM (inactive)	11.4 µM (inactive)
O=C(CO)CC(=O)C(=O)Nc1nc([N+](=O)[O-])cs1	> 100 µM (inactive)	> 100 µM (inactive)	> 100 µM (inactive)	> 100 µM (inactive)	55.1 µM (inactive)	> 100 µM (inactive)	> 100 µM (inactive)	> 100 µM (inactive)	> 100 µM (inactive)	> 100 µM (inactive)	> 100 µM (inactive)	> 100 µM (inactive)	> 100 µM (inactive)	> 100 µM	> 100 µM (inactive)	> 100 µM (inactive)
CCCCC(C(=O)C(=O)NC1C2CC3CC(C2)CC1C3)C(=O)C(C)C (stereo not drawn)	> 100 µM (inactive)	> 100 µM (inactive)	> 100 µM (inactive)	> 100 µM (inactive)	> 100 µM (inactive)	> 100 µM (inactive)	> 100 µM (inactive)	> 100 µM (inactive)	> 100 µM (inactive)	> 100 µM (inactive)	> 100 µM (inactive)	> 100 µM (inactive)	> 100 µM (inactive)	> 100 µM	> 100 µM (inactive)	> 100 µM (inactive)
CC(=O)N(O)Cc1ccccc1		> 100 µM (inactive)	> 100 µM (inactive)	> 100 µM (inactive)	67.9 µM (inactive)	> 100 µM (inactive)	> 100 µM (inactive)	> 100 µM (inactive)	> 100 µM (inactive)	> 100 µM (inactive)	> 100 µM (inactive)	> 100 µM (inactive)	> 100 µM (inactive)	> 100 µM	> 100 µM (inactive)	> 100 µM (inactive)
Cn1c(-c2ccccc2)c/c(=N\NS(C)(=O)=O)c2cc(S(=O)(=O)O)ccc21	> 100 µM (inactive)	> 100 µM (inactive)	> 100 µM (inactive)	> 100 µM (inactive)	> 100 µM (inactive)	> 100 µM (inactive)	> 100 µM (inactive)	> 100 µM (inactive)	> 100 µM (inactive)	> 100 µM (inactive)	> 100 µM (inactive)	> 100 µM (inactive)	> 100 µM (inactive)	> 100 µM	> 100 µM (inactive)	> 100 µM (inactive)
NCC(=O)OCN1C(=O)C2C3C=CC(C2C1=O)C1C2C(=O)N(COC(=O)CN)C(=O)C2C31 (stereo not drawn)	21.4 µM (inactive)	24.5 µM (inactive)		32.9 µM (inactive)	32.3 µM (inactive)	16.9 µM (inactive)	36.2 µM (inactive)	60.8 µM (inactive)	53.6 µM (inactive)	28.6 µM (inactive)	18.7 µM (inactive)	16.2 µM (inactive)	36.6 µM (inactive)	16.9 µM		40.2 µM (inactive)
c1ccc(CN(Cc2ccccn2)Cn2cccn2)nc1	> 100 µM (inactive)	33 µM (inactive)		> 100 µM (inactive)	> 100 µM (inactive)	29.2 µM (inactive)		43 µM (inactive)	> 100 µM (inactive)	51.5 µM (inactive)	39.2 µM (inactive)	22.1 µM (inactive)		28.7 µM	> 100 µM (inactive)	
COc1ccccc1NC(=O)C(CC(C(=O)Nc1ccccc1OC)/C(C)=N/Nc1ccc([N+](=O)[O-])cc1[N+](=O)[O-])/C(C)=N/Nc1ccc([N+](=O)[O-])cc1[N+](=O)[O-] (stereo not drawn)	> 100 µM (inactive)	> 86.1 µM (inactive)	> 82 µM (inactive)	41 µM (inactive)	52.1 µM (inactive)	1.7 µM (inactive)	32.4 µM (inactive)	> 92.7 µM (inactive)	> 100 µM (inactive)	> 100 µM (inactive)	> 100 µM (inactive)		> 100 µM (inactive)	> 91.6 µM	> 73.1 µM (inactive)	54.5 µM (inactive)
CCc1oc2ccc(OC)c3c2c1C=CC=C3	> 100 µM (inactive)	> 100 µM (inactive)	> 100 µM (inactive)		60.3 µM (inactive)	> 100 µM (inactive)	> 100 µM (inactive)	> 100 µM (inactive)	> 100 µM (inactive)		> 100 µM (inactive)		77.3 µM (inactive)	> 100 µM	> 100 µM (inactive)	> 100 µM (inactive)
CC1CC[C@]2(C(=O)O)CCC3(C)C(=CC(=O)C4[C@@]5(C)CCC(=O)C(C)(C)C5CC[C@]43C)[C@@H]2[C@H]1C (stereo partly drawn)		21 µM (inactive)		39.8 µM (inactive)	35.5 µM (inactive)	11.5 µM (inactive)	18.6 µM (inactive)	34.5 µM (inactive)	46.2 µM (inactive)	> 10 µM (inactive)	27.4 µM (inactive)	19.7 µM (inactive)	28.4 µM (inactive)		18.4 µM (inactive)	26.9 µM (inactive)
CCCCCCCOc1ccc(/C=C\c2cc[n+](CCCCCCCC[n+]3ccc(/C=C\c4ccc(OCCCCCCC)cc4)cc3)cc2)cc1	17.6 µM (inactive)	38.2 µM (inactive)		33.5 µM (inactive)	> 100 µM (inactive)	15.2 µM (inactive)	13.3 µM (inactive)	28.1 µM (inactive)	> 100 µM (inactive)	29.6 µM (inactive)	7.46 µM (inactive)	21.6 µM (inactive)	13.8 µM (inactive)	19.9 µM	2.64 µM (inactive)	11.3 µM (inactive)
COc1ccc(NC(=O)C(C)Oc2ccc(OCC3CCCCC3)cc2)cc1 (stereo not drawn)	81.1 µM (inactive)	44.5 µM (inactive)	23.6 µM (inactive)		54 µM (inactive)	54.5 µM (inactive)	51.4 µM (inactive)	> 100 µM (inactive)	50.9 µM (inactive)		> 100 µM (inactive)	46.7 µM (inactive)	> 100 µM (inactive)	63 µM	25.6 µM (inactive)	> 100 µM (inactive)
COc1ccc(OC)c2[nH]c(Sc3c([N+](=O)[O-])ncn3C)nc12		27.8 µM (inactive)	20.3 µM (inactive)	17.1 µM (inactive)	30.8 µM (inactive)		13 µM (inactive)	35.2 µM (inactive)	20.9 µM (inactive)	20.4 µM (inactive)	28.9 µM (inactive)	17.4 µM (inactive)	28.4 µM (inactive)	16 µM		24.2 µM (inactive)
Cc1nc2c(n1Cc1ccc(F)cc1)C(=O)c1ccccc1C2=O	34.1 µM (inactive)	28.9 µM (inactive)	87.3 µM (inactive)		36.6 µM (inactive)	5.4 µM (inactive)	13.5 µM (inactive)	> 100 µM (inactive)	> 100 µM (inactive)	38.5 µM (inactive)	6.56 µM (inactive)		9.44 µM (inactive)	4.29 µM	10.8 µM (inactive)	25.8 µM (inactive)
COc1ccc(OC(C(=O)O)c2ccccc2)c2c1CCCC2=O (stereo not drawn)	> 100 µM (inactive)	> 100 µM (inactive)	> 100 µM (inactive)	> 100 µM (inactive)		> 100 µM (inactive)	> 100 µM (inactive)	> 100 µM (inactive)	> 100 µM (inactive)	> 100 µM (inactive)	> 100 µM (inactive)	> 100 µM (inactive)	> 100 µM (inactive)	> 100 µM	> 100 µM (inactive)	> 100 µM (inactive)

Reference: ChEMBL document CHEMBL1201862, “PubChem BioAssay data set” (2004)
